Several values for one entry are separate records, joined by “and”; a condition that tells them apart may be missing. Identical values can stand only once.

The molecule `CF` [fluoromethane] gave a melting point of -142 °C.

In the case of `N#Cc1cc(F)c(N)cc1F` [4-amino-2,5-difluorobenzonitrile], the melting point came to 93 °C. As for `Clc1cccc(Cl)c1Br` [1-bromo-2,6-dichlorobenzene], the figure is 66 °C. As for `CN1C(C(=O)Nc2ccccn2)=C(O)c2sccc2S1(=O)=O` [tenoxicam], the figure is 211 °C; as for `CC(=O)Nc1ccccc1O` [2-acetamidophenol], 208 °C; as for `CC(C)Cc1ccc(C(C)C(=O)O)cc1` (stereo not drawn) [ibuprofen], 75 °C. As for `Cc1cc(O)ccc1O` [2-Methylbenzene-1,4-diol], the figure is 129 °C; as for `CCOC(=O)/C=C/c1ccccc1` [ethyl cinnamate], 7 °C.

Consider `CC(C)(C)OC(=O)/N=N/C(=O)OC(C)(C)C` [di-tert-butyl azodicarboxylate], for which the melting point was found to be 91 °C. As for `CCCCC(=O)c1ccccc1` [valerophenone], the figure is -9 °C. As for `COC(C)=O` [Methyl acetate], the figure is -98 °C. As for `ON=C(/C(=N\O)c1ccco1)c1ccco1` [2,2'-furil dioxime], the figure is 165 °C. Consider `C[C@H]1CCC[C@@H]1C` (relative stereo) [trans-1,2-dimethylcyclopentane], for which the melting point was -118 °C. As for `CC(C(=O)O)c1cccc(C(=O)c2ccccc2)c1` (stereo not drawn) [(+/+)-ketoprofen], the figure is 93.9 °C; as for `Clc1cc(Cl)cc(Br)c1` [1-bromo-3,5-dichlorobenzene], 75 °C; as for `CCCCCS` [1-pentanethiol], -76 °C. For the molecule `N#C/C=C/C#N` [(2E)-But-2-enedinitrile], the melting point worked out at 97 °C. `O=Cc1ccc(O)c(O)c1` [3,4-Dihydroxybenzaldehyde]: the melting point was 154 °C.

Turning to `CC(C)(C)NCC(O)COc1cccc2c1C[C@H](O)[C@H](O)C2` (stereo partly drawn) [Nadolol], the melting point came out at 130 °C. Molecule `Cc1cc(C)cc(C=O)c1` [3,5-dimethylbenzaldehyde] yielded a melting point of 9 °C. Turning to `C[C@@H](N)C(=O)O` [d-alanine], the melting point was found to be 291 °C.

The molecule `O=C(O)/C=C/C(=O)O` [Fumaric Acid] returned a melting point of 287 °C. Turning to `CC(CCc1ccccc1)NCC(O)c1ccc(O)c(C(N)=O)c1` (stereo not drawn) [labetalol], the melting point was found to be 188 °C. As for `C=CCc1ccccc1OCC(O)CNC(C)C` (stereo not drawn) [alprenolol], the figure is 109 °C. The molecule `C[C@]12CC[C@@H]3c4ccc(O)cc4CC[C@H]3[C@@H]1C[C@@H](O)[C@@H]2O` [Estriol] showed a melting point of 282 °C. As for `O=C=Nc1ccc([N+](=O)[O-])cc1` [4-nitrophenyl isocyanate], the figure is 58 °C; as for `O=C1C[C@@H]2OCC=C3CN4CC[C@]56c7ccccc7N1[C@H]5[C@H]2[C@H]3C[C@H]46` [strychnine], 280 °C. As for `Clc1cc(Cl)cc(I)c1` [1,3-dichloro-5-iodobenzene], the figure is 57 °C; as for `CCCCCCCCCCCCC` [Tridecane], -5 °C. As for `Nc1ccc(C(O)(C(F)(F)F)C(F)(F)F)cc1` [2-(4-aminophenyl)-1,1,1,3,3,3-hexafluoro-2-propanol], the figure is 150 °C; as for `c1ccc(CCc2ccccc2)cc1` [bibenzyl], 52 °C. For `CC1=C(/C=C/C(C)=C/C=C/C(C)=C/C=C/C=C(C)/C=C/C=C(C)/C=C/C2=C(C)CCCC2(C)C)C(C)(C)CCC1` [beta-carotene], the melting point worked out at 180 °C. For the molecule `c1ccc(-c2ccc(-c3ccccc3)cc2)cc1` [p-terphenyl], the melting point is 214 °C.

In the case of `O=C1OC(c2ccccc2)(c2ccccc2)C=C1O` [3-hydroxy-5,5-diphenylfuran-2(5H)-one], the melting point came out at 127 °C. As for `CC(=O)N[C@H]1C(O)O[C@H](CO)[C@@H](O)[C@@H]1O` (stereo partly drawn) [N-Acetyl-D-glucosamine], the figure is 205 °C.

Molecule `CCOC(=O)c1ccc(O)cc1` [ethyl p-hydroxybenzoate] registered a melting point of 116 °C. As for `O=C1CC[C@@H](C(=O)O)N1` [5-Oxo-L-proline], the figure is 162 °C; as for `O=Cc1ccc(Cl)cc1` [4-chlorobenzaldehyde], 46 °C and 48.5 °C and 47 °C. As for `[2H]OC(=O)C([2H])([2H])[2H]` [(~2~H_4_)Acetic acid], the figure is 15.5 °C. For the molecule `CCC1(CCC(C)C)C(=O)NC(=O)NC1=O` [amobarbital], the melting point is 157 °C. For the molecule `CC(CC1CC(=O)c2c3c(c4ccccc4c2O1)OC1CC(=O)OC31)O[Si](C)(C)C(C)(C)C` (stereo not drawn), the melting point was 132 °C. Turning to `[O-][n+]1onc2ccccc21` [benzofuroxan], the melting point turned out to be 69 °C.

With `CC(=O)c1ccc(O)c(C(F)(F)F)c1` [4'-hydroxy-3'-(trifluoromethyl)acetophenone], the melting point came out at 176 °C.

The molecule `Nc1cc([N+](=O)[O-])ccc1O` [2-amino-4-nitrophenol] [listing 1 of 2 here] registered a melting point of 143 °C. As for `CC1c2ccccc2C(=O)C1c1ccccc1` (stereo not drawn) [3-methyl-2-phenyl-2,3-dihydro-1H-inden-1-one], the figure is 85 °C. Regarding `O=C(O)CCc1ccccc1` [3-phenylpropanoic_acid], the melting point came to 49 °C. As for `Fc1c(F)c(F)c(B(c2c(F)c(F)c(F)c(F)c2F)c2c(F)c(F)c(F)c(F)c2F)c(F)c1F` [tris(pentafluorophenyl)borane], the figure is 128 °C.

In turn, `C/C=C/CCC` [trans-2-hexene] displayed a melting point of -99 °C. As for `CC(=O)Nc1cccc2c([N+](=O)[O-])cccc12` [N-(5-nitronaphthalen-1-yl)acetamide], the figure is 218 °C; as for `CC(=O)/C(=N/Nc1cccc(C(F)(F)F)c1)C(=O)C(F)(F)F`, 86 °C. As for `O=CNC1C/C=C/CC(NC=O)C/C=C/C1` (stereo not drawn) [N,N'-(3E,8E)-cyclodeca-3,8-diene-1,6-diyldiformamide], the figure is 234 °C. As for `CC1=CCC2CC1C2(C)C` (stereo not drawn) [a-pinene], the figure is -62 °C; as for `Cc1ccc(-c2nc(-c3ccccc3)cs2)cc1` [4-phenyl-2-(p-tolyl)thiazole], 58 °C; as for `O=C(O)C1CC2=C3C=CCC=C3N=C2CN1` (stereo not drawn) [2,3,4,9-tetrahydro-1H-beta-carboline-3-carboxylic acid], 296 °C. In turn, `C=CCO` [Prop-2-en-1-ol] showed a melting point of -129 °C.

`O=C1CCC(c2ccccc2)(C2CCN(Cc3ccccc3)CC2)C(=O)N1` (stereo not drawn) [benzetimide] returned a melting point of 156 °C. As for `CC(=O)O[C@@H]1[C@@H](OC(C)=O)[C@H](C)O[C@H](C#N)[C@@H]1OC(C)=O`, the figure is 130 °C; as for `c1ccc2c(c1)CCC2` [indane], -51 °C; as for `CS(=O)(=O)OCCCCOS(C)(=O)=O` [busulfan], 116 °C. As for `CCCCCCCCCCCCS(=O)(=O)Cl` [1-dodecanesulfonyl chloride], the figure is 41 °C; as for `C/C=C/C(=O)O` [trans-crotonic acid], 72 °C. As for `CC(Oc1ccc(Cl)cc1Cl)C(=O)O` (stereo not drawn) [dichlorprop], the figure is 118 °C; as for `Nc1ccccc1C1C=c2ccccc2=N1` (stereo not drawn) [2-(1H-Indol-2-yl)anilin], 153 °C; as for `COC(=O)c1ccc(N)cc1` [Methyl 4-aminobenzoate], 114 °C.

Consider `C1=CCC=C1` [Cyclopenta-1,3-diene], for which the melting point was -97.2 °C. The molecule `O=C(O)c1ccc(Br)cc1` [p-bromobenzoic_acid] came in with a melting point of 253 °C. In turn, `COc1cc(OC)c(C=O)c(OC)c1` [2,4,6-trimethoxybenzaldehyde] registered a melting point of 120 °C.

Turning to `C/C(C)=CCN2CC[C@@]1(C)c3cc(O)ccc3C[C@@H]2[C@@H]1C` [pentazocin], the melting point is 146 °C.

`Cc1ccc(O)c(Br)c1` [2-bromo-4-methylphenol]: the melting point was 16 °C. `O=S(=O)(O)CCCN1CCOCC1` [3-(Morpholin-4-yl)propane-1-sulfonic acid] yielded a melting point of 277 °C. As for `Cc1nnc2n1-c1ccc(Cl)cc1C(c1ccccc1Cl)=NC2` [triazolam], the figure is 234 °C; as for `Cc1ccc(C(N)=O)cc1C` [3,4-dimethylbenzamide], 102 °C; as for `FC(F)(F)C(F)(F)C(F)(F)C(F)(F)C(F)(F)C(F)(F)F` [perfluorohexanes], -90 °C.

`O=c1[nH]c2ccccc2n1C1CCN(CCCC(c2ccc(F)cc2)c2ccc(F)cc2)CC1` [pimozide] registered a melting point of 216 °C. `Nc1ccc(N)c2c1C(=O)c1c(N)ccc(N)c1C2=O` [1,4,5,8-Tetraamino-9,10-anthraquinone] showed a melting point of 332 °C. In the case of `CCCCCCCCCCCCN` [Dodecan-1-amine], the melting point came to 29 °C. As for `CCCCOC(=O)c1ccccc1C(=O)OCCCC` [Dibutyl phthalate], the figure is -35 °C; as for `CCCCc1c2c(cc3c1-c1ccccc1OC3)CC(C)(C)CC2=O`, 87 °C; as for `CCCCC=O` [valeraldehyde], -92 °C.

In the case of `O=C(O)c1cc(Cl)ccc1Br` [2-bromo-5-chlorobenzoic acid], the melting point stood at 154 °C. As for `CCCCP(=O)(CCCC)CCCC` [tri-n-butylphosphine oxide], the figure is 67 °C; as for `Nc1cc([N+](=O)[O-])ccc1O` [2-amino-4-nitrophenol] [listing 2 of 2 here], 144 °C.

Consider `N#CCC(=O)c1ccccc1` [Cyanoacetophenone], for which the melting point amounted to 83 °C. Molecule `N#Cc1ccc(Cl)c([N+](=O)[O-])c1` [4-chloro-3-nitrobenzonitrile] returned a melting point of 100 °C. As for `O=[N+]([O-])c1ccc(O)cc1` [4-nitrophenol], the figure is 112 °C; as for `CCOC=C(C#N)C(=O)OCC` [ethyl (ethoxymethylene)cyanoacetate], 50 °C; as for `NNC(=O)COc1ccc(Cl)cc1Cl` [2,4-dichlorophenoxyacetic acid hydrazide], 151 °C. Molecule `CCCCCc1ccc(B(O)O)cc1` [4-n-pentylbenzeneboronic acid] came in with a melting point of 83 °C.

As usually defined, the melting point is the temperature of the solid-liquid transition.

Source of the values: the Bradley open melting point set (2014).
